Experimental data: patent publication US7855297B2, “Amide derivatives and medicinal use thereof” (Mitsubishi Tanabe Pharma Corporation, priority 2000, dated 2010)
Counter-ions that a name gives are not always drawn.

SMILES | melting point
COc1ccc2c(c1)C(C(=O)N(Cc1ccc(N(C)C)nc1)c1ccc(C(C)C)cc1)CCC2 (stereo not shown) (as salt: hydrochloride) (hydrate or solvate) [Example 55, N-[(6-dimethylaminopyridin-3-yl)methyl]-N-(4-isopropylphenyl)-7-methoxy-1,2,3,4-tetrahydronaphthalene-1-carboxamide hydrochloride ½ hydrate] | 158 to 160 °C
COc1ccc2c(c1)C(C(=O)N(Cc1ccc(OC)nc1)c1ccc(C(C)C)cc1)CCC2 (stereo not shown) (as salt: hydrochloride) [Example 46, N-(4-isopropylphenyl)-N-[(6-methoxypyridin-3-yl)methyl]-7-methoxy-1,2,3,4-tetrahydronaphthalene-1-carboxamide monohydrochloride] | 114 to 117 °C
CCc1ccc(N(Cc2ccc(N(C)C)cc2)C(=O)C2CCCc3ccccc32)cc1 (stereo not shown) [Example 1, N-[(4-dimethylaminophenyl)methyl]-N-(4-ethylphenyl)-1,2,3,4-tetrahydronaphthalene-1-carboxamide] | 109 to 110 °C
CC(C)COc1ccc(Br)cc1N(Cc1ccc(N(C)C)cc1)C(=O)C1CCCc2ccccc21 (stereo not shown) [Example 5, N-(5-bromo-2-isobutoxyphenyl)-N-[(4-dimethylaminophenyl)methyl]-1,2,3,4-tetrahydronaphthalene-1-carboxamide] | 176 to 178 °C
CC(C)c1ccc(N(Cc2ccc(N(C)C)cc2)C(=O)C2CCCc3c(O)cccc32)cc1 (stereo not shown) [Example 17, N-[(4-dimethylaminophenyl)methyl]-5-hydroxy-N-(4-isopropylphenyl)-1,2,3,4-tetrahydronaphthalene-1-carboxamide] | 200 to 202 °C
CC(C)c1ccc(N(Cc2ccc(N(C)C)cc2)C(=O)C2CCCc3ccc(O)cc32)cc1 (stereo not shown) [Example 20, N-[(4-dimethylaminophenyl)methyl]-7-hydroxy-N-(4-isopropylphenyl)-1,2,3,4-tetrahydronaphthalene-1-carboxamide] | 214 to 217 °C
COc1ccc2c(c1)C(C(=O)N(Cc1ccc(S(C)(=O)=O)cc1)c1ccc(C(C)C)cc1)CCC2 (stereo not shown) [Example 35, N-(4-isopropylphenyl)-N-[(4-methylsulfonylphenyl)methyl]-7-methoxy-1,2,3,4-tetrahydronaphthalene-1-carboxamide] | 131 to 132 °C
CC(C)c1ccc(N(Cc2ccc(N(C)C)cc2)C(=O)C2CCCc3cc(O)ccc32)cc1 (stereo not shown) [Example 37, N-[(4-dimethylaminophenyl)methyl]-6-hydroxy-N-(4-isopropylphenyl)-1,2,3,4-tetrahydronaphthalene-1-carboxamide] | 169 to 171 °C
CC(C)c1ccc(N(Cc2ccc(N(C)C)cc2)C(=S)C2CCCc3ccccc32)cc1 (stereo not shown) [Example 54, N-[(4-dimethylaminophenyl)methyl]-N-(4-isopropylphenyl)-1,2,3,4-tetrahydronaphthalene-1-carbothioamide] | 123 to 125 °C

The next lines start with the values.

melting point | SMILES
108 to 110 °C | COc1ccc(CN(C(=O)C2CCCc3ccc(OC)cc32)c2ccc(C(C)C)cc2)nc1 (stereo not shown) (as salt: hydrochloride) (hydrate or solvate) [Example 56, N-(4-isopropylphenyl)-N-[(5-methoxypyridin-2-yl)methyl]-7-methoxy-1,2,3,4-tetrahydronaphthalene-1-carboxamide hydrochloride ½ hydrate]
125.4 °C | COc1ccc(N(Cc2ccc(N(C)C)cc2)C(=O)C2CCCc3ccc(F)cc32)cc1 (stereo not shown) (as salt: hydrochloride) (hydrate or solvate) [Example 128, N-[(4-dimethylaminophenyl)methyl]-7-fluoro-N-(4-methoxyphenyl)-1,2,3,4-tetrahydronaphthalene-1-carboxamide hydrochloride ½ hydrate]
165.6 °C | CC(C)c1ccc(N(Cc2ccc(N(C)C)cc2)C(=O)C2CCCc3ccc(F)cc32)cc1 (stereo not shown) (as salt: hydrochloride) [Example 127, N-[(4-dimethylaminophenyl)methyl]-7-fluoro-N-(4-isopropylphenyl)-1,2,3,4-tetrahydronaphthalene-1-carboxamide hydrochloride]
104 to 113 °C | COc1ccc2c(c1)C(C(=O)N(Cc1ccc(N(C)C)cc1)c1ccc(Br)cc1)CCC2 (stereo not shown) (as salt: hydrochloride) [Example 200, N-(4-bromophenyl)-N-[(4-dimethylaminophenyl)methyl]-7-methoxy-1,2,3,4-tetrahydronaphthalene-1-carboxamide hydrochloride]
155.7 °C | CC(C)c1ccc(N(Cc2ccc(N(C)C)cc2)C(=O)C2CCCc3c(OCCN(C)C)cccc32)cc1 (stereo not shown) (as salt: oxalate) (hydrate or solvate) [Example 113, 5-[2-(dimethylamino)ethoxy]-N-[(4-dimethylaminophenyl)methyl]-N-(4-isopropylphenyl)-1,2,3,4-tetrahydronaphthalene-1-carboxamide oxalate ¼ hydrate]
142.6 °C | CCn1cc(CN(C(=O)C2CCCc3c(OCCCN(C)C)cccc32)c2ccc(C(C)C)cc2)cn1 (stereo not shown) (as salt: oxalate) [Example 267, 5-[3-(dimethylamino)propoxy]-N-[(1-ethylpyrazol-4-yl)methyl]-N-(4-isopropylphenyl)-1,2,3,4-tetrahydronaphthalene-1-carboxamide 3/2 oxalate]
132.6 °C | CC(C)c1ccc(N(Cc2ccc(N(C)C)cc2)C(=O)C2CCCc3cc(OCCN(C)C)ccc32)cc1 (stereo not shown) (hydrate or solvate) [Example 106, 6-[2-(dimethylamino)ethoxy]-N-[(4-dimethylaminophenyl)methyl]-N-(4-isopropylphenyl)-1,2,3,4-tetrahydronaphthalene-1-carboxamide ⅕ hydrate]
143.2 °C | COc1ccc2c(c1)C(C(=O)N(Cc1ccc(CO)cc1)c1ccc(C(C)C)cc1)CCC2 (stereo not shown) [Example 95, N-{[4-(hydroxymethyl)phenyl]methyl}-N-(4-isopropylphenyl)-7-methoxy-1,2,3,4-tetrahydronaphthalene-1-carboxamide]
164 °C | COc1ccc(CN(C(=O)C2CCCc3c(O)cccc32)c2ccc(C(C)C)nc2)c(OC)n1 (stereo not shown) [Example 133, N-[(2,6-dimethoxypyridin-3-yl)methyl]-5-hydroxy-N-(6-isopropylpyridin-3-yl)-1,2,3,4-tetrahydronaphthalene-1-carboxamide]
115 to 117 °C | COc1ccc2c(c1)C(C(=O)N(Cc1ccc(N)cc1)c1ccc(C(C)C)cc1)CCC2 (stereo not shown) [Example 167, N-[(4-aminophenyl)methyl]-N-(4-isopropylphenyl)-7-methoxy-1,2,3,4-tetrahydronaphthalene-1-carboxamide]
92 °C | CC(C)c1ccc(N(Cc2cnn(CCN(C)C)c2)C(=O)C2CCCc3c(O)cccc32)cc1 (stereo not shown) [Example 355, N-({1-[2-(dimethylamino)ethyl]pyrazol-4-yl}methyl)-5-hydroxy-N-(4-isopropylphenyl)-1,2,3,4-tetrahydronaphthalene-1-carboxamide]
110 to 114 °C | CC(C)c1ccc(N(Cc2cnn(CCO)c2)C(=O)C2CCCc3c(O)cccc32)cc1 (stereo not shown) [Example 362, 5-hydroxy-N-{[1-(2-hydroxyethyl)pyrazol-4-yl]methyl}-N-(4-isopropylphenyl)-1,2,3,4-tetrahydronaphthalene-1-carboxamide]
127.7 °C | CC(C)c1ccc(N(Cc2cnn(CC(F)(F)F)c2)C(=O)C2CCCc3c(O)cccc32)cn1 (stereo not shown) [Example 435, 5-hydroxy-N-(6-isopropylpyridin-3-yl)-N-{[1-(2,2,2-trifluoroethyl)pyrazol-4-yl]methyl}-1,2,3,4-tetrahydronaphthalene-1-carboxamide]
